Assay [1] addresses T1, acetylcholinesterase from Electrophorus electricus (Electrophorus electricus, UniProt O42275).
T1 construct: purchased Sigma Aldrich type V-S
Put plainly: biochemical. Type of assay: biochemical. Particulars: for IC50: read-out: AChE IC50; for less active when connected to the central multivalent sugar scaffold: from rp/n of the corresponding tetra-tacrine; for AChE rp (relative inhibition potency): rp = IC50 (mono-tacrine)/IC50 (tetra-tacrine); for AChE rp/n (inhibition potency on valency-corrected basis): rp/n = rp/number of tacrine rings. The procedure:
(§1) For the assessment of enzymatic inhibition, commercially available acetylcholinesterase from Electrophorus electricus (type V-S, Sigma Aldrich) was used, conducting minor modifications on Ellman’s protocol. […] Enzymatic activities were measured in a UV–Vis instrument (Hitachi U-2900) using PS cuvettes containing […] phosphate buffer (pH 8.0), 5,5′-dithiobis(2-nitrobenzoic acid) (DTNB, 0.88 mM, buffer solution), acetylthiocholine iodide as a model substrate, inhibitor, properly diluted aqueous enzyme solution, and water up to 1.2 ml. Solutions of the enzymes were prepared so as to keep the reaction rate within 0.12–0.15 Abs/min when [S] = 4 × KM.
Calculation of IC50 values was accomplished by plotting %I vs. log[I] and adjusting to a second-order equation.
(§2) Data are expressed as the mean ± SD.

For assay [2], the target named is T1, acetylcholinesterase from Electrophorus electricus. Put plainly: Kinetic study of AChE inhibition mode (Cornish-Bowden plots, inhibition constants). It is filed as biochemical. Particulars: for Ki: mean ± SD. The procedure: as §1, with “KM. The formation of the chromophore was monitored during 125 s at 405 nm and 25 °C.” for “KM.”
For the calculation of the kinetic parameters of the free enzyme, and in the presence of 3a, five different substrate concentrations, ranging from ¼ KM to 4 × KM were used. Cornish-Bowden method[26] provided the mode of inhibition of 3a; for that purpose, two different plots were used: 1/v vs. [I] (Dixon plot) and [S]/v vs. [I]. […] Kinetic parameters (KM, Vmax, KM app, Vmax app) were obtained through non-linear regression analysis (least squares fit) using the GraphPad Prism 8.01 software and inhibition constants were calculated using the following equations: (1) KM,app=KM1+[I]/Kia/1+[I]/Kib (2) Vmaxapp=Vmax/1+[I]/Kib
as §2

Assay [3] concerns AChE. Particulars: cited from earlier work.
Setting [4] is: [S] = 121 μM, Electrophorus electricus AChE, mean ± SD.

Molecules are shown by their SMILES. Read-outs that look alike come from different tables or passages of the source.

T1 sequence (O42275 24-633): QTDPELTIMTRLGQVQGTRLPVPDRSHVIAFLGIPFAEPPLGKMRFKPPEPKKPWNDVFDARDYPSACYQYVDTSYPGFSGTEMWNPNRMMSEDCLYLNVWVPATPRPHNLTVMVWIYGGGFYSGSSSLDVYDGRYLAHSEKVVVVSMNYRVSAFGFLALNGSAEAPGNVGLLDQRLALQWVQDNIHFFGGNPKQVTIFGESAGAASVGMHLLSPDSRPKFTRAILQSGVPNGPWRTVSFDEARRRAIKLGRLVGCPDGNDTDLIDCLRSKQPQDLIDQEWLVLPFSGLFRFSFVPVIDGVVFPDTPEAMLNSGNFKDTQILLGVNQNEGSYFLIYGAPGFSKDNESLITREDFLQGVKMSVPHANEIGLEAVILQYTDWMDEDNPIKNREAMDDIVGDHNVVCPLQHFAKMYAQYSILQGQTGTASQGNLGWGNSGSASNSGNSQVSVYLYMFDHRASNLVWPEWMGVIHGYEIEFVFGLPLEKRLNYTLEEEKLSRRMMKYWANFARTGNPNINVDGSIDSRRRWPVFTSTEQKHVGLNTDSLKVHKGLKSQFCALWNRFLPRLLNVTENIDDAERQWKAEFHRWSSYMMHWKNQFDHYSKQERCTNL

Regarding `OCc1cn(CCNc2c3c(nc4ccccc24)CCCC3)nn1` [Compound 3b, (1-(2-((1,2,3,4-tetrahydroacridin-9-yl)amino)ethyl)-1H-1,2,3-triazol-4-yl)metanol], in assay [1], the IC50 amounted to 565 ± 79 nM.
For the compound `OCc1cn(CCCCCCCCNc2c3c(nc4ccccc24)CCCC3)nn1` [Compound 6b, (1-(8-((1,2,3,4-Tetrahydroacridin-9-yl)amino)octyl)-1H-1,2,3-triazol-4-yl)metanol], in assay [1], the “less active when connected to the central multivalent sugar scaffold” value is “more than 99%” and the IC50 came to 7.1 ± 1 nM.
Consider `CO[C@H]1O[C@H](COCc2cn(CCNc3c4c(nc5ccccc35)CCCC4)nn2)[C@@H](OCc2cn(CCNc3c4c(nc5ccccc35)CCCC4)nn2)[C@H](OCc2cn(CCNc3c4c(nc5ccccc35)CCCC4)nn2)[C@H]1OCc1cn(CCNc2c3c(nc4ccccc24)CCCC3)nn1` [Compound 3a], for which, in assay [1], the 50% inhibitory concentration (IC50) worked out at 43.7 ± 7.3 nM, the “AChE rp (relative inhibition potency)” value came to 12.9 and the “AChE rp/n (inhibition potency on valency-corrected basis)” value turned out to be 3.2. Further, the “mode of inhibition of AChE” value in assay [2] (Cornish-Bowden method) is listed as “Mixed inhibition”. Moreover, the Ki in assay [2] (binding to enzyme-substrate complex, read-out: Kib (non-competitive inhibition constant)) came out at 45 ± 5.9 nM. Moreover, the Ki in assay [2] (binding to free enzyme, read-out: Kia (competitive inhibition constant)) was determined as 31.6 ± 2 nM.
Consider `CO[C@H]1O[C@H](COCc2cn(CCCCCCCCNc3c4c(nc5ccccc35)CCCC4)nn2)[C@@H](OCc2cn(CCCCCCCCNc3c4c(nc5ccccc35)CCCC4)nn2)[C@H](OCc2cn(CCCCCCCCNc3c4c(nc5ccccc35)CCCC4)nn2)[C@H]1OCc1cn(CCCCCCCCNc2c3c(nc4ccccc24)CCCC3)nn1` [Compound 6a], for which the IC50 in assay [1] (setting [4]) was 232 ± 21 nM. The “AChE rp (relative inhibition potency)” value in assay [1] was 0.03.
For `c1ccc2c(NCCCCCCCNc3c4c(nc5ccccc35)CCCC4)c3c(nc2c1)CCCC3` [bis(7)tacrine], in assay [3], the “fold stronger AChE inhibitor than tacrine” value was around 1000 fold.
For the compound `CO[C@H]1O[C@H](CO)[C@@H](O)[C@H](O)[C@H]1O` [Methyl α-D-glucopyranoside, methyl α-D-glucopyranoside, reference compound], in assay [1] (Tested at 100 μM inhibitor concentration, [S] = 121 μM), the “AChE inhibition (N.I.)” value is reported as “N.I.^d”.
As to `CO[C@H]1O[C@H](COCc2cn(CCCCCCNc3c4c(nc5ccccc35)CCCC4)nn2)[C@@H](OCc2cn(CCCCCCNc3c4c(nc5ccccc35)CCCC4)nn2)[C@H](OCc2cn(CCCCCCNc3c4c(nc5ccccc35)CCCC4)nn2)[C@H]1OCc1cn(CCCCCCNc2c3c(nc4ccccc24)CCCC3)nn1` [Compound 5a], in assay [1], the IC50 was 12.5 ± 3.3 nM and the “AChE rp (relative inhibition potency)” value is reported as 1.0.
With `OCc1cn(CCCCCCNc2c3c(nc4ccccc24)CCCC3)nn1` [Compound 5b, (1-(6-((1,2,3,4-tetrahydroacridin-9-yl)amino)hexyl)-1H-1,2,3-triazol-4-yl)metanol], in assay [1], the “less active when connected to the central multivalent sugar scaffold” value worked out at 75% and the IC50 came out at 12.6 ± 2.4 nM.
As to `CO[C@H]1O[C@H](COCc2cn(CCCNc3c4c(nc5ccccc35)CCCC4)nn2)[C@@H](OCc2cn(CCCNc3c4c(nc5ccccc35)CCCC4)nn2)[C@H](OCc2cn(CCCNc3c4c(nc5ccccc35)CCCC4)nn2)[C@H]1OCc1cn(CCCNc2c3c(nc4ccccc24)CCCC3)nn1` [Compound 4a], the half-inhibitory concentration (IC50) in assay [1] (setting [4]) came out at 60.2 ± 5.5 nM. For the same compound, in assay [1], the “AChE rp (relative inhibition potency)” value came out at 5.8 and the “AChE rp/n (inhibition potency on valency-corrected basis)” value was 1.5.
For the compound `OCc1cn(CCCNc2c3c(nc4ccccc24)CCCC3)nn1` [Compound 4b, (1-(3-((1,2,3,4-tetrahydroacridin-9-yl)amino)propyl)-1H-1,2,3-triazol-4-yl)metanol], in assay [1], the IC50 is 348 ± 23 nM.

For orientation: IC50 means the midpoint of a concentration-inhibition curve.

Source of the values: article PMC8317962, “Development of tacrine clusters as positively cooperative systems for the inhibition of acetylcholinesterase” (Journal of Enzyme Inhibition and Medicinal Chemistry, 2021).
